Common to all, as to experiment: DTP human tumour cell line panel, 48 h
The test system of assay [1] is ACHN.
In assay [2] the test system is SR.
Assay [3] deals with SW-620.
Assay [4] has as its system 786-0.
The test system of assay [5] is CAKI-1.
The test system of assay [6] is SN12C.
The test system of assay [7] is UACC-62.
Assay [8] deals with SF-268.
Assay [9] relates to HOP-62.
Assay [10] relates to SF-539.
Assay [11] concerns SK-MEL-28.
For assay [12], the system named is RPMI-8226.
Assay [13] relates to MOLT-4.
Assay [14] relates to HCC 2998.
In assay [15] the test system is HOP-92.
Assay [16] deals with RXF 393.
Assay [17] has as its system TK-10.
In assay [18] the test system is UACC-257.
Assay [19] has as its system MDA-N.
Assay [20] has as its system IGROV-1.

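96-well plates; 48 h exposure; 5 concentrations. Endpoints by linear interpolation between flanking doses. Not reached: highest tested concentration assigned. GI50 = concentration required for 50% inhibition of growth.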 The source made the active and inactive calls. Cut-off read from the data, not from the text of the source: active = GI50 up to about 1.1 µM and inactive = higher. Starred links: 1 amine or outer side, 2 acyl side, 3 side chain; linkers in the order of their positions; H or OH if unused. Non-standard residues stand in square brackets, D forms with d. Residues, ends and D or L forms follow the SMILES beside them. X4 = C[C@H](N[*:1])C(=O)C(C)(C)C(=O)[*:2]; Hmpa(2S,3S) = CC[C@H](C)[C@H](O)C(=O)O; NMeY = CN[C@@H](Cc1ccc(O)cc1)C(=O)O; NMeL = CN[C@@H](CC(C)C)C(=O)O; NMeV = CN[C@H](C(=O)O)C(C)C; βAla = NCCC(=O)O

As for `[N-]=[N+]=Nc1ccccc1C(=O)N1C(=O)c2ccccc2C(=O)N(C(=O)c2ccccc2N=[N+]=[N-])c2ccccc21`, the GI50 is 45.1 µM (inactive) in [1]; 38.8 µM (inactive) in assay [2]; 32.1 µM (inactive) in assay [3]; 28.4 µM (inactive) in [4]; 59 µM (inactive) in [5]; 82.8 µM (inactive) in assay [6]. For the same molecule, the GI50 in [7] was 34.4 µM (inactive); in assay [8], 71 µM (inactive); in [9], 21.6 µM (inactive); in assay [10], 43.7 µM (inactive); in assay [11], > 100 µM (inactive); in assay [12], 36.8 µM (inactive). Moreover, the GI50 in assay [13] was 13.9 µM (inactive); in [14], > 100 µM (inactive); in assay [15], 23.1 µM (inactive); in assay [16] it was 27.4 µM (inactive); in assay [17] it was 67.5 µM (inactive); in assay [18], 82.4 µM (inactive). For the same molecule, the GI50 was 59.3 µM (inactive) in [19] and 46.9 µM (inactive) in assay [20].

For `[N-]=[N+]=CC(=O)OC1Cc2ccccc2C1`, the GI50 in assay [1] is 27.7 µM (inactive); in assay [2], > 100 µM (inactive); in [3] it was > 100 µM (inactive); in assay [4], > 81.7 µM (inactive); in [5] it was 1 µM (active); in [6], > 39.4 µM (inactive). The GI50 in assay [7] is > 100 µM (inactive); in assay [8], > 100 µM (inactive); in assay [9] it was > 66.8 µM (inactive); in assay [10] it was > 100 µM (inactive); in [11], > 100 µM (inactive); in [12], > 100 µM (inactive). For the same molecule, the GI50 is > 100 µM (inactive) in [13]; > 100 µM (inactive) in assay [14]; 69.7 µM (inactive) in assay [15]; > 42.6 µM (inactive) in assay [16]; 97.3 µM (inactive) in assay [17]; > 100 µM (inactive) in assay [18]. Besides, the GI50 in assay [19] and in assay [20] was > 100 µM (inactive) each time.

On to `CC[C@H](C)[C@@H]1OC(=O)CCNC(=O)[C@@H](C)NC(=O)C(C)(C)C(=O)[C@H](C)NC(=O)[C@H](Cc2ccc(OC)cc2)N(C)C(=O)[C@H](C(C)C)N(C)C(=O)CNC(=O)[C@H](CC(C)C)N(C)C(=O)CNC1=O` (cyclo(G[NMeL]G[NMeV][NMeY](Me)[X4][dA][βAla][Hmpa(2S,3S)])), for which the GI50 is 3.1 µM (inactive) in assay [1]; 0.337 µM (active) in assay [2]; 0.0625 µM (active) in [3]; 0.676 µM (active) in [4]; 1.53 µM (inactive) in assay [5]; 0.367 µM (active) in assay [6]. Moreover, the GI50 in [7] was 0.294 µM (active); in assay [8], 0.254 µM (active); in [9], 0.962 µM (active); in assay [10] it was 0.252 µM (active); in assay [11] it was 0.15 µM (active); in assay [12], 0.0726 µM (active). Further, the GI50 is 2.4 µM (inactive) in [13]; 0.0715 µM (active) in assay [14]; 0.665 µM (active) in assay [15]; 0.733 µM (active) in assay [16]; 1.67 µM (inactive) in assay [17]; 0.218 µM (active) in [18]. For the same molecule, the 50% growth inhibitory concentration (GI50) in assay [19] is 0.299 µM (active); in [20] it was 0.697 µM (active).

(Values after ChEMBL document CHEMBL1201862, “PubChem BioAssay data set” (2004).)
